US9670242B2, “Tetracyclic anthraquinone derivatives” (Tianjin Hemay Bio-Tech Co., Ltd, priority 2012, dated 2017)
One block for each compound: values may come before it.

Experiments:
SK-Br-3 cells = assay: SK-Br-3 cell growth inhibition test (SRB assay); assay type: cell-based, human; conditions: 72 h
Protocol: SK-Br-3 Cell Growth Inhibition Test (SRB Assay)
(§1) II. Reagents and Consumable Materials
Culture medium: 85% DMEM+15% FBS; pancreatin (0.25% (w/v) solution was formulated with PBS, 0.53 mM of EDTA was added in the formulation); PBS; 96-well culture plate.
(§2) 1. A plate (10 cm) of cells in logarithmic growth phase that were normally cultured was collected;
(§3) 2. The culture solution was sucked out. The plate was washed with 5 mL of PBS once or twice;
(§4) 3. 1.5 mL of 0.25% pancreatin was added to the plate to infiltrate the cells;
4. The pancreatin was sucked out. The culture plate was placed in an incubator. Digestion was carried out for about 2 min at 37° C.;
(§5) 5. 4 mL of complete culture solution was added to the culture plate to stop the digestion. The cells were carefully scoured with micropipette (1 mL) to give a uniform single cell suspension. The suspension was implanted into a 96-well cell culture plate by 10000 cells/100 μL per well. The culture plate was incubated overnight under 5% CO2 at 37° C. In day 2, 100 μL of culture solution comprising a compound was added in each well. The plate was further incubated for 72 h under 5% CO2 at 37° C.;
(§6) 6. The culture solution was sucked out. 100 uL of TCA fixed cells which were diluted to 10% were added to each well. The plate was kept in a refrigerator for 1 h at 4° C.
7. TCA stationary liquid was sucked out. […]
13. OD values were determined at […]. […]

[1] = Solubility of the compound in water; assay type: physicochemical
[2] = Storage stability detected by HPLC; assay type: physicochemical; conditions: sealed and stored for 9 months under refrigeration conditions
NCI-446 cells = assay: NCI-446 cell growth inhibition test (MTT assay); assay type: cell-based, human; conditions: 72 h
Protocol: NCI-446 Cell Growth Inhibition Test (MTT Assay)
II. Reagents and Consumable Materials Culture medium: 90% RPMI1640+10% FBS (fetal calf serum); Pancreatin (0.25% (w/v) solution was formulated with PBS, 0.53 mM of EDTA was added in the formulation); PBS; 96-well culture plate.
as §2
2. The culture solution was sucked out. The plate was washed with 5 ml of PBS once or twice;
(§7) 3. PBS was sucked out. 1.5 mL of 0.25% pancreatin was added to the plate to infiltrate the cells for 1 min;
(§8) 4. The culture plate was placed in an incubator. Digestion was carried out for about 3 min at 37° C.;
as §5, with “5. 3 mL of” for “5. 4 mL of”, “a uniform cell suspension.” for “a uniform single cell suspension.”, “cell culture disc by 4000” for “cell culture plate by 10000”, “disc by 4000 cells/100 μL” for “plate by 10000 cells/100 μL”
(§9) 6. The culture solution was sucked out;
(§10) 7. 100 μL of serum-free culture solution containing 0.5 mg/mL MTT was added in each well. The plate was incubated for 3 h;
(§11) 8. The culture solution was carefully sucked out;
9. […]
(§12) 10. OD values were determined at 490 nM. […]

MCF-7 cells = assay: MCF-7 cell growth inhibition test (SRB assay); assay type: cell-based, human; conditions: 73 h
Protocol: MCF-7 Cell Growth Inhibition Test (SRB Assay)
as §1
Culture medium: 90% EMEM+10% FBS; Pancreatin (0.25% (w/v) solution was formulated with PBS, 0.53 mM of EDTA was added in the formulation); PBS; 96-well culture plate.
as §2, §3, §4
(§13) 4. The pancreatin was sucked out. The culture plate was placed in an incubator. Digestion was carried out for about 3 min at 37° C.;
as §5, with “73” for “72”
as §6
(§14) 7. TCA stationary liquid was sucked out. Each well was washed with 150 μL of ddH2O five times;
(§15) 8. After the stationary liquid was cleansed, the plate was dried in the air at the room temperature;
(§16) 9. 60 μL of SRB staining solution was added in each well. The well was stained for 15 min at the room temperature;
(§17) 10. The SRB staining solution was sucked out. Each well was washed with 150 μL of 1% glacial acetic acid five times;
(§18) 11. After the SRB staining solution was cleansed, the plate was dried in the air at the room temperature;
(§19) 12. 100 μL of 10 mM Tris was added in each well. The plate was vibrated to dissolve out SRB;
(§20) 13. OD values were determined at 570 nM.
(§21) IV. Results and Treatments
1. Calculation of Relative Inhibition Ratio The inhibition ratio of a compound on cell growth=(PC−n)/(PC−NC)×100% […]

A431 cells = assay: A431 cell growth inhibition test (MTT assay); assay type: cell-based, human; conditions: 72 h
Protocol: A431 Cell Growth Inhibition Test (MTT Assay)
as §1
Culture medium: 45% DMEM+45% F12+10% FBS (fetal calf serum); Pancreatin (0.25% (w/v) solution was formulated with PBS, 0.53 mM of EDTA was added in the formulation); PBS; 96-well culture plate.
as §2, §3, §7
(§22) 4. The culture plate was placed in an incubator. Digestion was carried out for about 5 min at 37° C.;
as §5, with “5. 3 mL of” for “5. 4 mL of”, “a uniform cell suspension.” for “a uniform single cell suspension.”, “cell culture disc by 2500” for “cell culture plate by 10000”, “disc by 2500 cells/100 μL” for “plate by 10000 cells/100 μL”
as §9, §10, §11
(§23) 9. 100 μL of DMSO was added in each well and vibrated to dissolve;
(§24) 10. OD values were determined at 490 nM.
as §21
(§25) 1. Calculation of Relative Inhibition Ratio The inhibition ratio of a compound on cell growth=(PC−n)/(PC−NC)×100%
(§26) PC: OD values of cells after normal growth in control wells without a compound;
(§27) n: OD values of cells after growth in test wells with a compound;
(§28) NC: Background OD values of blank wells without a compound and cells.

B16 cells = assay: B16 cell growth inhibition test (MTT assay); assay type: cell-based, mouse; conditions: 72 h
Protocol: B16 Cell Growth Inhibition Test (MTT Assay)
as §1
(§29) Culture medium: 90% RPMI1640+10% FBS (fetal calf serum); Pancreatin (0.25% (w/v) solution was formulated with PBS, 0.53 mM of EDTA was added in the formulation); PBS; 96-well culture plate.
as §2, §3, §7
(§30) 4. The culture plate was placed in an incubator. Digestion was carried out for about 1 min at 37° C.;
as §5, with “5. 3 mL of” for “5. 4 mL of”, “a uniform cell suspension.” for “a uniform single cell suspension.”, “cell culture disc by 2500” for “cell culture plate by 10000”, “disc by 2500 cells/100 μL” for “plate by 10000 cells/100 μL”
as §9
7. 100 μl of serum-free culture solution containing 0.5 mg/mL MTT was added in each well. The plate was incubated for 3 h;
as §11, §23, §24, §21, §25, §26, §27, §28

NCI-H460 cells = assay: NCI-H460 cell growth inhibition test (MTT assay); assay type: cell-based, human; conditions: NCI-460 cells (NCI-H460 in method), 72 h
Protocol: NCI-H460 Cell Growth Inhibition Test (MTT Assay)
as §1, §29, §2, §3, §7, §8
as §5, with “5. 3 mL of” for “5. 4 mL of”, “a uniform cell suspension.” for “a uniform single cell suspension.”, “cell culture disc by 2000” for “cell culture plate by 10000”, “disc by 2000 cells/100 μL” for “plate by 10000 cells/100 μL”
as §9, §10, §11
9. […]
as §12

A375 cells = assay: A375 cell growth inhibition test (MTT assay); assay type: cell-based, human; conditions: 72 h
Protocol: A375 Cell Growth Inhibition Test (MTT Assay)
as §1
Culture medium: 90% DMEM+10% FBS (fetal calf serum); Pancreatin (0.25% (w/v) solution was formulated with PBS, 0.53 mM of EDTA was added in the formulation); PBS; 96-well culture plate.
as §2, §3, §7, §22
(§31) 5. 3 mL of complete culture solution was added to the culture plate to stop the digestion. The cells were carefully scoured with micropipette (1 ml) to give a uniform cell suspension. The suspension was implanted into a 96-well cell culture disc by 3000 cells/100 μL per well. The culture plate was incubated overnight under 5% CO2 at 37° C. In day 2, 100 μL of culture solution comprising a compound was added in each well. The plate was further incubated for 72 h under 5% CO2 at 37° C.;
as §9, §10, §11, §23, §24, §21, §25, §26, §27, §28

DU-145 cells = assay: DU-145 cell growth inhibition test (MTT assay); assay type: cell-based; conditions: 72 h
Protocol: DU-145 Cell Growth Inhibition Test (MTT Assay)
as §1
Culture medium: 90% EMEM+10% FBS (fetal calf serum); Pancreatin (0.25% (w/v) solution was formulated with PBS, 0.53 mM of EDTA was added in the formulation); PBS; 96-well culture plate.
as §2, §3, §7, §30
as §31, with “mL)” for “ml)”, “4000” for “3000”
as §9, §10, §11, §23, §24, §21, §25, §26, §27, §28

Hep3B cells = assay: Hep3B cell growth inhibition test (SRB assay); assay type: cell-based; conditions: 72 h
Protocol: Hep3B Cell Growth Inhibition Test (SRB Assay)
as §1
Culture medium: 90% RPMI-1640+10% FBS; Pancreatin (0.25% (w/v) solution was formulated with PBS, 0.53 mM of EDTA was added in the formulation); PBS; 96-well culture plate.
as §2, §3, §4, §13
as §5, with “5000” for “10000”
as §6, §14, §15, §16, §17, §18, §19, §20, §21
1. Calculation of Relative Inhibition Ratio The inhibition ratio of the compound on cell growth=(PC−n)/(PC−NC)×100% […]

786-O cells = assay: 786-O cell growth inhibition test (MTT assay); assay type: cell-based, human; conditions: 72 h
Protocol: 786-O Cell Growth Inhibition Test (MTT Assay)
as §1, §29, §2, §3, §7, §30
as §31, with “mL)” for “ml)”, “2000” for “3000”
as §9, §10, §11, §23, §24, §21, §25, §26, §27, §28

IC50 (SK-Br-3 cells): 15 nM
Compound: COCCOCCOCCOCCOCCOCCOCCOCCOCCNC(=O)CCC(=O)OCC(=O)C1(O)Cc2c(O)c3c(c(O)c2C(OC2CC(n4cccc4)C(O)C(C)O2)C1)C(=O)c1c(OC)cccc1C3=O (stereo not drawn) [Example 98]

Compound: COc1cccc2c1C(=O)c1c(O)c3c(c(O)c1C2=O)CC(O)(C(=O)COC(=O)CCC(=O)NCCN1CCOCC1)CC3O[C@H]1C[C@H](n2cccc2)[C@H](O)[C@H](C)O1.O=P(O)(O)O (stereo partly drawn) [Example 96, 10-((3′-(pyrrol-1-yl)-2′,3′,6′-trideoxy-alphal-l-lyxo-hexylpyranyl)oxy)-7,8,9,10-tetrahydro-6,8,11-trihydroxy-13-oxo-14-(4-((2-(morpholin-1-yl)ethyl)amino)-4-oxo-butyrato)-1-methoxy-5,12-naphthalenedione phosphate]
solubility of the compound in water [1]: more than 26 mg/ml
stability on storage (degraded product by HPLC) [2]: No obvious degraded product was observed

Compound: COc1cccc2c1C(=O)c1c(O)c3c(c(O)c1C2=O)CC(O)(C(=O)COC(=O)CCC(=O)NCCN1CCOCC1)CC3O[C@H]1C[C@H](n2cccc2)[C@H](O)[C@H](C)O1 (stereo partly drawn) [Example 89, 10-((3′-(pyrrol-1-yl)-2′,3′,6′-trideoxy-alphal-l-lyxo-hexylpyranyl)oxy)-7,8,9,10-tetrahydro-6,8,11-trihydroxy-13-oxo-14-(4-((2-(morpholin-1-yl)ethyl)amino)-4-oxo-butyrato)-1-methoxy-5,12-naphthalenedione acetate]
IC50 (NCI-446 cells): 140 nM
IC50 (MCF-7 cells): 333 nM
IC50 (A431 cells): 46 nM
IC50 (B16 cells): 3 nM
IC50 (NCI-H460 cells): 2.5 nM
IC50 (A375 cells): 48 nM
IC50 (DU-145 cells): 56 nM

IC50 (Hep3B cells): 28 nM
IC50 (DU-145 cells): 61 nM
Compound: COc1cccc2c1C(=O)c1c(O)c3c(c(O)c1C2=O)CC(O)(C(=O)COC(=O)CCC(=O)NCCOCCOCCOCCOCCOCCOCCOCCOCCOCCOCCOCCO)CC3OC1CC(n2cccc2)C(O)C(C)O1 (stereo not drawn) [Example 92]

IC50 (786-O cells): 90 nM
IC50 (Hep3B cells): 29 nM
IC50 (DU-145 cells): 30 nM
Compound: COc1cccc2c1C(=O)c1c(O)c3c(c(O)c1C2=O)CC(O)(C(=O)COC(=O)CCC(=O)NCCOCCOCCOCCOCCOCCOCCOCCO)CC3OC1CC(n2cccc2)C(O)C(C)O1 (stereo not drawn) [Example 90]
